IC50 data for 15 compounds are collected here from patent US9957264B2 (Merck Sharp & Dohme Corp., priority 2013, dated 2018).

Bounds are passed on as bounds.

The target in experiment [1] is JAK2 (recombinant purified GST-tagged catalytic domain) (Homo sapiens (Human), UniProt O60674). The experiment is described as follows: Jak Biochemical HTRF Assay (JAK2). As to conditions: [ATP] 8.5 μM. As for the experimental part: Jak Biochemical HTRF Assay Protocol
The ability of compounds to inhibit the activity of JAK1, JAK2, JAK3, and Tyk2 was measured using a recombinant purified GST-tagged catalytic domain for each enzyme (Invitrogen JAK1 #M4290, JAK2 #M4290, JAK3 #M4290, Tyk2 #M4290) in an HTRF format biochemical assay. […] The basic assay protocol is as follows: First, 250 nL of diluted compounds in DMSO were dispensed into the wells of a dry 384-well Black plate (Greiner #781076) using a Labcyte Echo 555 acoustic dispenser. Subsequent reagent additions employed an Agilent Bravo. […] After equilibration, 2 μL of 10×ATP in 1× assay buffer was added to initiate the kinase reaction and the plates were shaken and then incubated at room temperature for 120 minutes. […] Plates were shaken and centrifuged and then incubated 60 minutes at room temperature and then read on a Perkin Elmer Envision (λex=337 nm, λem=665 and 615 nm, TRF delay time=20 μs). HTRF signal=10,000*665 nm reading/615 nm reading. After normalization to untreated controls, the percent inhibition of the HTRF signal at each compound concentration was calculated. The plot of percent inhibition versus the log of compound concentration was fit with a 4-parameter dose response equation to calculate IC50 values.
Final reaction conditions were:
Examples of the instant invention were evaluated in JAK1 and JAK2 in vitro binding assays as described above.
For orientation: TR-FRET usually uses a lanthanide donor and a delayed reading to cut background.

Experiment [2] has as its target JAK1 (recombinant purified GST-tagged catalytic domain) (Homo sapiens (Human), UniProt P23458). The experiment is described as follows: Jak Biochemical HTRF Assay (JAK1). As to conditions: [ATP] 31.8 μM. Summed up: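 Compounds in DMSO were pre-equilibrated with enzyme and biotinylated peptide, then ATP was added and the reaction proceeded 120 min at room temperature. EDTA-based stop buffer with detection reagents was added, and after 60 min the time-resolved FRET ratio was read. IC50s came from 4-parameter dose–response fits.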

Sequence of JAK2 (recombinant purified GST-tagged catalytic domain) (O60674 849-1124): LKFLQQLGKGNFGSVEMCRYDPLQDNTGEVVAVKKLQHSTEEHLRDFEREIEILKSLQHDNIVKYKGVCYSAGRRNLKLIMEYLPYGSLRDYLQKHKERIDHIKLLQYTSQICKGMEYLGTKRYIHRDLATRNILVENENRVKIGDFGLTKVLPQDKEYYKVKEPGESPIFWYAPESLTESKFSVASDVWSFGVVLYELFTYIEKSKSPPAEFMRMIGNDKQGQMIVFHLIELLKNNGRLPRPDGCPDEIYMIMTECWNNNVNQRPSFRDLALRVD
Sequence of JAK1 (recombinant purified GST-tagged catalytic domain) (P23458 875-1153): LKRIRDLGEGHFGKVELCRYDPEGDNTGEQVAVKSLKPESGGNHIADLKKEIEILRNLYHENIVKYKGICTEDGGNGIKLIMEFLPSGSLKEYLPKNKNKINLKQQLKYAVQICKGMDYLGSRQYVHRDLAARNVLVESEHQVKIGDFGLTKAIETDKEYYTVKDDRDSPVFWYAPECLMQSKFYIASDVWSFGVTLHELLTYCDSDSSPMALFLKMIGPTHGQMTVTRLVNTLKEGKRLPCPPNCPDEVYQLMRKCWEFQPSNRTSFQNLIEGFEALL

As for `CC(C)(C)OC(=O)[C@@H]1CC[C@@](CC#N)(n2nc(Nc3ccc4nc(N5CC6CCC(C5)O6)ccc4c3)c3c(=O)[nH]ccc32)CO1` [Example 5-229, (2S,5S)-tert-butyl 5-(3-((2-(8-oxa-3-azabicyclo[3.2.1]octan-3-yl)quinolin-6-yl)amino)-4-oxo-4,5-dihydro-1H-pyrazolo[4,3-c]pyridin-1-yl)-5-(cyanomethyl) tetrahydro-2H-pyran-2-carboxylate], the values for the IC50 in experiment [1] and in experiment [2] were 1.39 nM and 0.34 nM, respectively.

For `N#CC[C@]1(n2nc(Nc3ccc(Cl)cc3)c3c(=O)[nH]ccc32)CC[C@@H](N2CC(F)C2)CC1` [Example 18-7, Cis 2-(1-(3-((4-chlorophenyl)amino)-4-oxo-4,5-dihydro-1H-pyrazolo[4,3-c]pyridin-1-yl)-4-(3-fluoroazetidin-1-yl)cyclohexyl)acetonitrile], the IC50 (usually the point on the concentration scale where inhibition reaches its midpoint) in experiment [1] was 19.8 nM; in experiment [2], 2.98 nM.

In the case of `CN(C)c1ccc2cc(Nc3nn([C@]4(CC#N)CC[C@@H](C(=O)OC(C)(C)C)OC4)c4cc[nH]c(=O)c34)ccc2n1` [Example 5-222, (2S,5S)-tert-butyl 5-(cyanomethyl)-5-(3-((2-(dimethylamino)quinolin-6-yl)amino)-4-oxo-4,5-dihydro-1H-pyrazolo[4,3-c]pyridin-1-yl)tetrahydro-2H-pyran-2-carboxylate], the half-maximal inhibitory concentration (IC50) in experiment [1] stood at 0.64 nM; in experiment [2] it was 0.13 nM.

As to `N#CC[C@]1(n2nc(Nc3ccc(Cl)c(F)c3)c3c(=O)[nH]ccc32)CC[C@@H](NC2CCCCC2)CC1` [Example 18-22, Cis 2-(1-(3-((4-chloro-3-fluorophenyl)amino)-4-oxo-4,5-dihydro-1H-pyrazolo[4,3-c]pyridin-1-yl)-4-(cyclohexylamino)cyclohexyl)acetonitrile], the half-maximal inhibitory concentration (IC50) in experiment [1] was greater than 1500 nM; in experiment [2], 20.5 nM.

As to `CC(C)(C)N1Cc2cc(Nc3nn([C@@]4(CC#N)CCOC4)c4cc[nH]c(=O)c34)ccc2S1(=O)=O` (single isomer, unassigned) [Example 5-247, (S or R)-2-(3-(3-((2-(tert-butyl)-1,1-dioxido-2,3-dihydrobenzo[d]isothiazol-5-yl)amino)-4-oxo-4,5-dihydro-1H-pyrazolo[4,3-c]pyridin-1-yl)tetrahydrofuran-3-yl)acetonitrile], the figures for the IC50 in experiment [1] and in experiment [2] were 2.24 nM and 0.11 nM, respectively.

In the case of `CC(C)(C)OC(=O)[C@H]1CC[C@@](CC#N)(n2nc(Nc3ccc([C@H](N)C(F)(F)F)cc3)c3c(=O)[nH]ccc32)CO1` (single isomer, unassigned) [Example 5-52, (2R,5S)-tert-butyl 5-(3-((4-((S or R)-1-amino-2,2,2-trifluoroethyl)phenyl)amino)-4-oxo-4,5-dihydro-1H-pyrazolo[4,3-c]pyridin-1-yl)-5-(cyanomethyl) tetrahydro-2H-pyran-2-carboxylate], the results for the half-inhibitory concentration (IC50) in experiment [1] and in experiment [2] were 30.3 nM and 11.7 nM, respectively.

Consider `CC(C)(C)OC(=O)[C@@H]1CC[C@@](CC#N)(n2nc(Nc3ccc4c(c3)CC(C)(C)C4(O)C(F)(F)F)c3c(=O)[nH]ccc32)CO1` (single isomer, unassigned) [Example 5-164, (2S,5S)-tert-butyl 5-(cyanomethyl)-5-(3-(((S or R)-1-hydroxy-2,2-dimethyl-1-(trifluoromethyl)-2,3-dihydro-1H-inden-5-yl)amino)-4-oxo-4,5-dihydro-1H-pyrazolo[4,3-c]pyridin-1-yl)tetrahydro-2H-pyran-2-carboxylate], for which the IC50 was 0.68 nM in experiment [1] and 0.59 nM in experiment [2].

In the case of `CC(C)(C)OC(=O)C(C)(C)N1Cc2cc(Nc3nn(C4(CC#N)CCCC4)c4cc[nH]c(=O)c34)ccc2C1=O` [Example 5-140, tert-butyl 2-(5-((1-(1-(cyanomethyl)cyclopentyl)-4-oxo-4,5-dihydro-1H-pyrazolo[4,3-c]pyridin-3-yl)amino)-1-oxoisoindolin-2-yl)-2-methylpropanoate], the IC50 in experiment [1] is 0.74 nM; in experiment [2], 0.32 nM.

For the compound `COC1CN([C@H]2CC[C@](CC#N)(n3nc(Nc4ccc(Cl)c(F)c4)c4c(=O)[nH]ccc43)CC2)C1` [Example 18-24, Trans 2-(1-(3-((4-chloro-3-fluorophenyl)amino)-4-oxo-4,5-dihydro-1H-pyrazolo[4,3-c]pyridin-1-yl)-4-(3-methoxyazetidin-1-yl)cyclohexyl)acetonitrile], the IC50 stood at 5.87 nM in experiment [1] and 0.09 nM in experiment [2].

`N#CC[C@]1(n2nc(Nc3ccc(C(F)(F)F)cc3)c3c(=O)[nH]ccc32)CC[C@H](Nc2ccccc2)CC1` [Example 18-4, Trans 2-(1-(4-oxo-3-((4-(trifluoromethyl)phenyl)amino)-4,5-dihydro-1H-pyrazolo[4,3-c]pyridin-1-yl)-4-(phenylamino)cyclohexyl)acetonitrile]: the results for the half-maximal inhibitory concentration (IC50) in experiment [1] and in experiment [2] were 102 nM and 6.33 nM, respectively.

For `CN(C)S(=O)(=O)c1ccc(Nc2nn(C3(CC#N)CCN(C(=O)O[C@H]4CCOC4)CC3)c3cc[nH]c(=O)c23)cc1` [Example 11-11, (S)-tetrahydrofuran-3-yl 4-(cyanomethyl)-4-(3-((4-(N,N-dimethylsulfamoyl)phenyl)amino)-4-oxo-4,5-dihydro-1H-pyrazolo[4,3-c]pyridin-1-yl)piperidine-1-carboxylate], the figures for the IC50 in experiment [1] and in experiment [2] were 0.91 nM and 0.16 nM, respectively.

For the compound `N#CCC1(n2nc(Nc3ccc(C(N)C(F)(F)F)cc3)c3c(=O)[nH]ccc32)CCCC1` (single isomer, unassigned) [Example 5-89, (R or S)-2-(1-(3-((4-(1-amino-2,2,2-trifluoroethyl)phenyl)amino)-4-oxo-4,5-dihydro-1H-pyrazolo[4,3-c]pyridin-1-yl)cyclopentyl)acetonitrile], the half-inhibitory concentration (IC50) came to 1.74 nM in experiment [1] and 0.5 nM in experiment [2].

In the case of `CO[C@@H](c1ccc(Nc2nn(C3(CC#N)CCN(C(=O)OC(C)(C)C)CC3)c3cc[nH]c(=O)c23)cc1)C(F)(F)F` (single isomer, unassigned) [Example 21-10, tert-butyl 4-(cyanomethyl)-4-[4-oxo-3-({4-[(1S or 1R)-2,2,2-trifluoro-1-methoxyethyl]phenyl}amino)-4,5-dihydro-1H-pyrazolo[4,3-c]pyridin-1-yl]piperidine-1-carboxylate], the 50% inhibitory concentration (IC50) in experiment [1] was determined as 1.95 nM; in experiment [2], 0.97 nM.

For the compound `CC(C)(C)OC(=O)[C@H]1CC[C@](CC#N)(n2nc(Nc3ccc(S(C)(=O)=O)cc3)c3c(=O)[nH]ccc32)CO1` [Example 5-40, (2R,5R)-tert-butyl 5-(cyanomethyl)-5-(3-((4-(methylsulfonyl)phenyl)amino)-4-oxo-4,5-dihydro-1H-pyrazolo [4,3-c]pyridin-1-yl) tetrahydro-2H-pyran-2-carboxylate], the half-maximal inhibitory concentration (IC50) in experiment [1] is 14.6 nM; in experiment [2] it was 2.06 nM.

Take `CC(C)(C)OC(=O)N1CCC(CC#N)(n2nc(Nc3cc(Cn4nccn4)cc(Cn4nccn4)c3)c3c(=O)[nH]ccc32)CC1` [Example 5-63, tert-butyl 4-(3-(3,5-bis((2H-1,2,3-triazol-2-yl)methyl)phenylamino)-4-oxo-4,5-dihydropyrazolo[4,3-c]pyridin-1-yl)-4-(cyanomethyl)piperidine-1-carboxylate]: the values for the concentration for half-maximal inhibition (IC50) in experiment [1] and in experiment [2] were 0.7 nM and 2.1 nM, respectively.
